Assay: Determination of maximal biliary ICG excretion rate
Type: in vivo, rat
Procedure: Bile was obtained through the bile catheter by inserting a 23-gauge infusion set needle (Abbott Laboratories) from which all but 0.5 in of tubing had been removed, and approximately 24 inches of saline-filled PE 60 tubing attached. A sterile 1.5 mL sampling tube was attached to the tubing end, and bile was withdrawn by suspending the sampling tube below the cage using negative pressure. Bile was collected into tared sampling tubes at 5 minute intervals during a 90 minute period during which ICG was infused into the IVC at 50 μg/minute. ICG, 1 mL/h was delivered by a Razel Scientific (Stamford, Conn.) infusion pump with a 3 mL Becton Dickinson (Franklin Lakes, N.J.) syringe.
Bile flow rate was calculated using the net sampling tube weight assuming a bile density of 1 g/mL. A total of 10 μL of bile from each sample tube was aliquoted to determine ICG concentration. The remainder of the bile was infused into the duodenal catheter to maintain enterohepatic circulation of bile acids. Biliary ICG concentrations were measured spectrophotometrically at wavelength 805 nm. Biliary ICG excretion was calculated for each 5 minute interval by multiplying the bile flow rate by the biliary ICG concentration.
To establish a sensitive and reliable measure of hepatic dysfunction, the maximal biliary ICG excretion rate under physiologic conditions was determined. This measure, which detected even minor changes in biliary ICG excretion, was critical to subsequent primary studies. The animals were anesthetized with ketamine (60 mg/kg) and xylazine (5 mg/kg) intramuscularly. […] The blood concentrations and biliary excretion rates of ICG was measured during a constant infusion of ICG at 10, 20, 50, 100, and 200 μg/minute for 90 minutes in 8 rats that served as their own controls for the different doses on separate days. […] Biliary ICG excretion was measured as described above. Aortic blood samples (0.25 mL) were collected every 10 minutes and analyzed for ICG concentration. Following each blood draw, the animals were transfused with an equal volume of blood obtained immediately prior to transfusion from other untreated chronically catheterized rats that were previously designated as donors. […] After an initial 30 minute equilibration period mean biliary ICG excretion remained at a steady state concentration between 30 and 90 minutes of ICG infusion. […] The bile flow rate was unaffected by any of the tested ICG concentrations.

[1] = ICG infusion 100 and 200 μg/minute

effect of ICG on bile flow rate (any of the tested ICG concentrations (10-200 μg/minute)): unaffected
equilibration period before steady state biliary ICG excretion (constant ICG infusion): 30 min
SMILES: CC1(C)C(/C=C/C=C/C=C/C=C2\N(CCCCS(=O)(=O)O)c3ccc4ccccc4c3C2(C)C)=[N+](CCCCS(=O)(=O)[O-])c2ccc3ccccc3c21 [ICG, Indocyanine green]
biliary ICG excretion rate between 30 and 90 minutes vs 50 μg/minute [1]: did not yield a greater biliary ICG excretion rate
mean blood ICG concentrations between 30 and 90 minutes vs 50 μg/minute [1]: significantly increase mean blood ICG concentrations
